Measurements published in patent US20030108872A1, “Genomics-assisted rapid identification of targets” (priority 2000, published 2003).

Key:
Assay type in all cases: cell-based
E. coli strain WO-153 = test: Genome-wide E. coli ORFmer overexpression rescue (OER) assay
Protocol: Over expression Rescue Assays. Over expression assays were conducted with the E. coli strain WO-153 described in Table 7. Construction of WO-0153. […] The asmB1 mutation is a G to A transition at position 628 in the 1pxC gene. […] The tolC gene encodes an outer membrane protein that acts as a channel for the acrAB efflux pumps (See for example, Fralick, J. 1996. J. Bacteriol. 178:5801-5805). […] WO-0153 was constructed as follows. The asmB1 mutation was introduced into a DNA fragment containing the 1pxC gene and 1 kb of the 5′ end of the secA gene by site directed mutagenesis of the 1pxC gene using standard methods. A kan^R resistance cassette flanked by FRT sites was introduced 60 bp downstream of the 1pxC gene. The linear DNA construct was introduced into electrocompetent and recombinogenic E. coli KM354 (pTP223) as described by Murphy (See for example, Murphy, 1998, J. Bacteriol. 180: 2063-71). Transformants were selected on LB agar containing kanamycin (35 mcg/ml) and screened for sensitivity to novobiocin (20 mcg/ml). The presence of the asmB1 mutation in clones with the expected phenotype was verified by DNA sequence analysis. The kanR gene flanked by FRT sites was then excised from the 1pxC-secA intergenic region using a previously described method (See for example, Cherepanove, P. P, and Wackernagel, W. 1995. Gene 158: 9-14.). […] 178:5138-5143; Fralick, J. (1996). J. Bacteriol. 178:5801-5805; Fralick, J. A., et al. (1994) J. Bacteriol. 176:6404-6406; and Cherepanove, P. P, et al., (1995) Gene 158:9-14. […] Plasmid library DNA was transformed into WO-153 by electroporation as described above. Cells were collected from transformation plates by scraping and were equalized to an optical density of 1.53 on a Beckman DU650 spectrophotometer([…]). Groups of five libraries were mixed and frozen in LB media plus 10% (vol/vol) glycerol by immersion in a dry-ice/ethanol bath for 5 minutes.
Over-expression assays were performed in liquid media in a microtiter format, in a gradient plate format, or in a disk-diffusion format. The protocol used for the microtiter format was similar to the protocol described above for the MIC assay. Aliquots of 5 library pools spanning the genome were thawed at room temperature and 200 ul of each was inoculated into its own 20 ml of Mueller Hinton media containing ampicillin at 200 ug/ml and anhydrous tetracycline inducer as appropriate. Typically, replicates were performed using a number of final inducer concentrations, ranging from 0 to 100 ng/ml. Following an adequate mixing, 50 ul of inoculated media was mixed with 50 ul of the test antibiotic in Nunc brand 96-well microtiterplates. Typically, each group of five libraries was mixed with a range of concentrations of antibiotic spanning the minimum inhibitory concentration (MIC) of the antibiotic. […] Columns may contain 10 different groups of libraries as well as null vector and no innoculum controls. After mixing inoculum plus media with antibiotic, well contents were mixed by pipetting and incubated at 37° C. for 16 to 20 hours. Optical density at 600 nm was measured using a Molecular Devices SpectraMAX 250 spectrophotometer. […] Contents of wells showing rescue were transferred to LB agar plates containing ampicillin at 100 ug/ml, and were spread to obtain single colonies. Alternately, it is possible to maintain selection for the antibiotic being assayed by including it in the agar plates at this point.
OER Assay using Disk diffusion and Gradient Plate Assay formats. In the Disk diffusion plate format, the 3 inocula (see below) were plated on MHB plates containing ampicillin (100 mcg/ml) and anhydrous tetracycline (a-tet, 100 ng/ml). Two paper disks (6 mm diameter) containing 10×and 20×MIC of the test antiobiotic were placed on the surface of the plate.

[1] = test system: cells in which murA is regulated by PBAD; test: MIC by microbroth dilution in E. coli under-expressing murA; conditions: FIG. 6
Protocol: The wild-type gene murA, which encodes the enzyme UDP-N-acetylglucosamine enolpyruvate transferase, was knocked out in E. coli, and the gene was placed under ectopic expression in the yibD locus under regulation by PBAD with the regulator, L-arabinose.
(§1) Methods. […] IPTG was added to a final concentration of 0.1 mM and anhydrous-tetracycline was added to a final concentration of 100 ng/ml to the culture media for routine growth of GTC-EC#313 and GTC-EC#346, respectively.
(§2) The specificity and sensitivity of the resultant colonies to added drugs were followed by measuring the minimal inhibitory concentration (MIC) of trimethoprim, sulfamethozasone, phosphomycin and D-cycloserine at varying regulator levels. This was performed according to NCCLS (National Center for Clinical Laboratory Standards) recommendations(NCCLS, 1997, METHODS FOR DILUTION ANTIMICROBIAL SUSCEPTIBILITY TESTS FOR BACTERIA THAT GROW AEROBICALLY, 4th ed.; approved standard. NCCLS document M7-A4. NCCLS, Wayne, Pa.), in 100 μl volume in 96-well format, with serial two-fold dilutions of drug concentration.

[2] = test system: B. subtilis NO-347 (BD170 thrC::Pspac-murA kanR ΔmurA::CmR); test: MIC by microbroth dilution in B. subtilis under-expressing murA; conditions: IPTG 0-0.1 mM, compared to the control strain, FIG. 10
Protocol: Materials and Methods. The materials are the same as discussed above. Plasmids are listed in Table 4 B. subtilis strains were routinely grown in LB media or on LB agar plates containing 1.5% agar (Sambrook et al., MOLECULAR CLONING: A LABORATORY MANUAL, 2nd ed., Cold Spring Harbor Laboratory Press, 1989). MIC determination is performed using microbroth dilution-cultures grown in Mueller Hinton broth in 96-well microtiter plates purchased from Nunc (Plates—Cat. No. 262162; Lids—Cat. No. 264122). When required, media were supplemented with 5 μg/ml chloramphenicol or 10 μg/ml kanamycin. IPTG was added to culture media at a final concentration of 0.05 mM for routine culture growth of B. subtilis NO-347 (BDI70 thrC::Pspac-murA kan^R ΔmurA::Cm^R), which is dependent on IPTG for growth.
The endogenous murA gene in NO-360 was deleted by allelic replacement as follows (see FIG. 9). DNA fragments flanking the 5′ and 3′ ends of the murA gene were amplified from B. subtilis 168 genomic DNA using primer pairs KO mura F1+R2 and KO murA F2+R1, respectively. The 5′ and 3′ flanking fragments were linked to the Cm^R gene from pEVP3 using the cross-over PCR technique with the primer pair KO mura F1+R1. The resulting PCR product (shown in FIG. 9B) was used to transform naturally competent B. subtilis NO-360. Cm^R clones were selected in the presence of 0.01 mM and 0.05 mM IPTG. Allelic replacement of murA in Cm^R clones was verified by PCR. Strain NO-347 (BD170 thrC::Pspac-murA Kan^R ΔmurA::Cm^R) was chosen for MIC determinations for phosphomycin in presence of various concentrations of the regulator IPTG.
MIC determinations. Determination of minimum inhibitory concentration (MIC) for phosphomycin, novobiocin, erythromycin and trimethoprim lactate were performed in 96-well microliter plates using the microbroth dilution technique as described in NCCLS. 1997. Methods for dilution antimicrobial susceptibility tests for bacteria that grow aerobically-fourth edition; approved standard. NCCLS document M7-A4. NCCLS, Wayne, Pa. For MIC determinations using strain NO-347, various concentrations (0-0.1 mM) were added to the media. Growth was quantitated by OD600 measurements using a SpectroMax 250 plate reader (Molecular Devices).

[3] = test system: cells in which folA is regulated by PBAD, PLtetO-1, or Plac/ara-1; test: MIC by microbroth dilution in E. coli under-expressing folA; conditions: FIG. 5
Protocol: In another example, the wild-type native folA gene was knocked out, and a wild-type copy of the gene folA, which encodes the protein dihydrofolate reductase, was placed under ectopic expression in the yibD locus under regulation by PBAD with the regulator, L-arabinose. Dihydropteroate synthetase, the gene product of […], catalyzes the enzymatic reaction two steps before dihydrofolate reductase in the folate biosynthetic pathway.
as §1, §2

N[C@@H]1CONC1=O [D-cycloserine]
identity of OER clones that were not the expected gene, by sequence analyses (E. coli strain WO-153): closely related ddlB gene
OER clones that were not the expected ddlA gene (E. coli strain WO-153; PCR verification of OER clones): 80%
sensitivity on under-expression of murA [1]: hypersensitivity

Oc1cc(Cl)ccc1Oc1ccc(Cl)cc1Cl [triclosan]
PCR verification of OER clones: expected target gene (E. coli strain WO-153; liquid microtiter assay, expected targets folA, murA, fabI): expected target gene was identifed
PCR verification of OER clones: expected clone (E. coli strain WO-153; two plate assay format (disk diffusion, gradient plate)): expected clone was isolated

CO[C@@H]1[C@@H](OC(N)=O)[C@@H](O)[C@H](Oc2ccc3c(O)c(NC(=O)c4ccc(O)c(CC=C(C)C)c4)c(=O)oc3c2C)OC1(C)C [novobiocin]
sensitivity (MIC) on regulated under-expression of murA [2]: does not affect sensitivity

Cc1cc(NS(=O)(=O)c2ccc(N)cc2)no1 [sulfamethozasone]
MIC with decreasing regulator (L-arabinose) level [3]: decreases

CC[C@H]1OC(=O)[C@H](C)[C@@H](O[C@H]2C[C@@](C)(OC)[C@@H](O)[C@H](C)O2)[C@H](C)[C@@H](O[C@@H]2O[C@H](C)C[C@H](N(C)C)[C@H]2O)[C@](C)(O)C[C@@H](C)C(=O)[C@H](C)[C@@H](O)[C@]1(C)O [erythromycin]
sensitivity (MIC) on regulated under-expression of murA [2]: does not affect sensitivity
